Counter-ions that a name gives are not always drawn. One block for each molecule: values may come before it. Calls of active or inactive are those of the source.
Assays:
[1] = target: T1, Sentrin-specific protease 7 (Homo sapiens, UniProt Q9BQF6); experiment: SENP7 protease inhibitors, SAR follow-up, biochemical, luminescence (AID 504497); assay type: functional
T1 sequence (Q9BQF6 whole entry): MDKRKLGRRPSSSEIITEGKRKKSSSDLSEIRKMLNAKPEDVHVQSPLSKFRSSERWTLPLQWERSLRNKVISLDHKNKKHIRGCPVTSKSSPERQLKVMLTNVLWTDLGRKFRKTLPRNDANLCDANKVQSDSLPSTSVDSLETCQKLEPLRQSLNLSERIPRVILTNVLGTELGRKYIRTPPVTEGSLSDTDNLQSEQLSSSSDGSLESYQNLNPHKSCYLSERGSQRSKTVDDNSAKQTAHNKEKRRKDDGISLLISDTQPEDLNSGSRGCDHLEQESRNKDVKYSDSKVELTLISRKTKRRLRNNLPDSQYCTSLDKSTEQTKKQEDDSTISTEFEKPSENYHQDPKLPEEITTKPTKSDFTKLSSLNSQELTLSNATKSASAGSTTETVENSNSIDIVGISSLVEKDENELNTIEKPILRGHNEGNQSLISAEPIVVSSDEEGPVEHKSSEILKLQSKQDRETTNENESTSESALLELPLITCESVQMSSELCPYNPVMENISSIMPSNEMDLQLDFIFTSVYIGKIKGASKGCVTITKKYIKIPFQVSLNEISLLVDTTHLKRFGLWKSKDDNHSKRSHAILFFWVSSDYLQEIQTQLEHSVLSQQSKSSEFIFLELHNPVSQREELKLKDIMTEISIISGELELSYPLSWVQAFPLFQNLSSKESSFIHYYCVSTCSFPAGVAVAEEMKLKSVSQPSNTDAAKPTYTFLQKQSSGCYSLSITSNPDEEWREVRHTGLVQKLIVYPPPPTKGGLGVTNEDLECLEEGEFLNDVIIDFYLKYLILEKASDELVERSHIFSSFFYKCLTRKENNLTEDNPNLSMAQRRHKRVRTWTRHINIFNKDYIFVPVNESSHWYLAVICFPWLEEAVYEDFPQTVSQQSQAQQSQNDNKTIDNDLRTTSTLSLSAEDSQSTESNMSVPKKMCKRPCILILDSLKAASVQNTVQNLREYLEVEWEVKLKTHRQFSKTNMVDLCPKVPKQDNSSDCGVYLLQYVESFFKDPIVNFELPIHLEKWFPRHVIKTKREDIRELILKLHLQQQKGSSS

[2] = target: T2, Sentrin-specific protease 8 (Homo sapiens, UniProt Q96LD8); experiment: SENP8 protease inhibitors, SAR follow-up, biochemical, luminescence, set 2 (AID 588601); assay type: functional
T2 sequence (Q96LD8 whole entry): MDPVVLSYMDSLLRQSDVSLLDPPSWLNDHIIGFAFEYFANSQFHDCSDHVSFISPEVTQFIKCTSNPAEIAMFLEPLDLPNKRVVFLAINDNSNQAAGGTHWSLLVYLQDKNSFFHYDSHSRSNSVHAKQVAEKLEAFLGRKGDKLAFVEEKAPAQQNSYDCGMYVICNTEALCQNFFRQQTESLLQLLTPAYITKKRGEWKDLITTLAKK

Caspase-3 = target: T3, Caspase-3 (Homo sapiens, UniProt P42574); experiment: SAR Analysis of small molecule inhibitors of Sentrin-specific proteases (SENPs) using a Caspase-3 Selectivity assay. [Related pubchem assays (depositor defined):AID2540, AID2599, AID434973, AID489001]; assay type: functional
T3 sequence (P42574 whole entry): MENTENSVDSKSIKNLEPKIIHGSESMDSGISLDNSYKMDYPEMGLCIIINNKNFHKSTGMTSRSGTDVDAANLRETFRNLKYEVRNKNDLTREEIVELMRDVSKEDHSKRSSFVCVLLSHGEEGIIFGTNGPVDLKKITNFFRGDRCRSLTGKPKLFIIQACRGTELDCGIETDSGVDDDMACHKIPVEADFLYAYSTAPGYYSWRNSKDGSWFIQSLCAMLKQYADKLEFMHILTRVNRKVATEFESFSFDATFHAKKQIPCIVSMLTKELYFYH

[3] = target: T1, Sentrin-specific protease 7; experiment: SENP7 protease inhibitors, SAR follow-up, biochemical, luminescence, set 2 (AID 588600); assay type: functional
[4] = target: T4, Sentrin-specific protease 6 (Homo sapiens, UniProt Q9GZR1); experiment: SENP6 protease inhibitors, SAR follow-up, biochemical, luminescence, set 2 (AID 588598); assay type: functional
T4 sequence (Q9GZR1 whole entry): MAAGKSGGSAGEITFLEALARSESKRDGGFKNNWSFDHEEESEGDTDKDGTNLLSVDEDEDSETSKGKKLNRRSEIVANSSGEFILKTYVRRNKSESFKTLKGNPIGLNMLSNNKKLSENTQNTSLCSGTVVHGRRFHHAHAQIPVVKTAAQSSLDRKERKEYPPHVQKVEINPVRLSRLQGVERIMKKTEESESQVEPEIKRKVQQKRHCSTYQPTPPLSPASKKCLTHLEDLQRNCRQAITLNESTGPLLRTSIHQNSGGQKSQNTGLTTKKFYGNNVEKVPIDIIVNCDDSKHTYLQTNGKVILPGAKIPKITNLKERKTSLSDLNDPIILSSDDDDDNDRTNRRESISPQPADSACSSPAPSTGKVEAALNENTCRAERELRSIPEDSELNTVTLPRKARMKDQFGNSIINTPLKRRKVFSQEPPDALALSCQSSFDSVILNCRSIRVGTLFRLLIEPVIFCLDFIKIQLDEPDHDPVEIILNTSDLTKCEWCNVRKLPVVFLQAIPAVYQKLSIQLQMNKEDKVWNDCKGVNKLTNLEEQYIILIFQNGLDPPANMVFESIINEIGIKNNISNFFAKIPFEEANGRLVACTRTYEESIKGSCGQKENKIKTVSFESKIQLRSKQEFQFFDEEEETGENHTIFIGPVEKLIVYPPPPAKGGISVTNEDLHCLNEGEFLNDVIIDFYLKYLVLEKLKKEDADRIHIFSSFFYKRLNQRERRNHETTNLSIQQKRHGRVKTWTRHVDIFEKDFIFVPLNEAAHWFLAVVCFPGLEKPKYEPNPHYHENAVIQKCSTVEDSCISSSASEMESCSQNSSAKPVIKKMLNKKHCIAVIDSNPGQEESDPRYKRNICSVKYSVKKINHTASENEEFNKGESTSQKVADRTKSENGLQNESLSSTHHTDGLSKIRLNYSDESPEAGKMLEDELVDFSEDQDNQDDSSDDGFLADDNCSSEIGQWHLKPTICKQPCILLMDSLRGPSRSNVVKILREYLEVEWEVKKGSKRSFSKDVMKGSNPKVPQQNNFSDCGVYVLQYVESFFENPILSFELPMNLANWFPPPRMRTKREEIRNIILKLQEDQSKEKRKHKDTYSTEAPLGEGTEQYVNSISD

[5] = target: T2, Sentrin-specific protease 8; experiment: SENP8 protease inhibitors, SAR follow-up, biochemical, luminescence (AID 504501); assay type: functional
[6] = target: T4, Sentrin-specific protease 6; experiment: SAR Analysis of small molecule inhibitors of Sentrin-specific protease 6 (SENP6) using a Luminescent assay. [Related pubchem assays (depositor defined):AID2582, AID2599]; assay type: functional
Phospholipase A2 = Phospholipase A2 (Homo sapiens, UniProt P04054); assay type: functional;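 further: confirmatory dose-response counterscreen on phospholipase A2, testing hits that came from an ultra-high-throughput screen for ATG4B inhibitors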
Cysteine protease ATG4B = Cysteine protease ATG4B (Homo sapiens, UniProt Q9Y4P1); assay type: functional;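 further: Fluorescence-based dose-response confirmation assay measuring inhibition of ATG4B activity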
[7] = target: Beta-2 adrenergic receptor (Homo sapiens, UniProt P07550); experiment: beta2AR agonists driving receptor internalization, dose response, cell-based, FAP fluorogen, flow cytometry, cherry pick 1 (AID 588763); assay type: functional
Fatty acid synthase [8] = target: T5, Fatty acid synthase (Homo sapiens, UniProt P49327); experiment: FAS thioesterase domain inhibitors, dose response, biochemical, endpoint fluorescence intensity, uHTS hits (AID 624327); assay type: functional;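 further: fluorescence from hydrolysis of an O-methyl fluorescein acyl ester substrate by the enzyme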
[9] = target: Heat shock protein HSP 90-alpha (Homo sapiens, UniProt P07900); assay type: functional, organism-based
[10] = HepG2 cell cytotoxicity, dose response, cytotoxicity control for Shn3 inhibitor project, CellTiter-Glo, cherry-picked (AID 624134); assay type: functional, cell-based
[11] = inhibitors of PGC1a acetylation in cells, dose response, cell-based, cherry-picked samples (AID 720514); assay type: functional;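 further: potency may reflect raised or lowered acetylation signal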
CHO = experiment: cytotoxicity in TLR9-MyD88 CHO cells, dose response, cytotoxicity control for TLR9-MyD88 binding inhibitor project, cell-based, luminescence (AID 588339); assay type: functional, hamster; details: Cricetulus griseus;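 further: CHO cells stably coexpressing TLR9 and MyD88 fusions from primary screen; compound exposure lasted 48 hours before viability readout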
Fatty acid synthase [12] = target: T5, Fatty acid synthase; experiment: FAS thioesterase domain inhibitors, dose response, biochemical, kinetic fluorescence intensity (AID 624326); assay type: functional;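 further: rate of fluorescence rise from hydrolysis of a fluorogenic O-methyl fluorescein ester substrate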
Beta Lactamase = Beta Lactamase (Pseudomonas aeruginosa, UniProt Q932Y6); experiment: beta-lactamase reporter inhibitor potency, dose response, artefact control for TLR9-MyD88 binding inhibitor project, BLA reporter cells, FRET fluorescence (AID 588341); assay type: cell-based;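 further: cell based assay in CHO-K1 cells stably expressing beta-lactamase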
[13] = Shn3 3'UTR reporter inhibitors, dose response, cell-based, Clone20 osteoblasts, firefly luciferase, cherry-picked (AID 624132); assay type: functional;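 further: firefly luciferase luminescence from reporter carrying the Shn3 3'UTR in osteoblasts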
[14] = control 3'UTR Renilla luciferase suppression, dose response, counter-screen for Shn3 inhibitor project, cell-based, Clone20-Shn3RL, cherry-picked (AID 624133); assay type: functional
[15] = target: T6, RNA-binding protein pos-1 (Caenorhabditis elegans, UniProt G5EF15); experiment: inhibitors of POS-1/mex-3 RNA binding, dose response, biochemical, fluorescence polarization (AID 1964);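 further: purified POS-1 fused to maltose binding protein made in E. coli; potency of compounds blocking POS-1 binding to fluorescent RNA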
T6 sequence (G5EF15 whole entry): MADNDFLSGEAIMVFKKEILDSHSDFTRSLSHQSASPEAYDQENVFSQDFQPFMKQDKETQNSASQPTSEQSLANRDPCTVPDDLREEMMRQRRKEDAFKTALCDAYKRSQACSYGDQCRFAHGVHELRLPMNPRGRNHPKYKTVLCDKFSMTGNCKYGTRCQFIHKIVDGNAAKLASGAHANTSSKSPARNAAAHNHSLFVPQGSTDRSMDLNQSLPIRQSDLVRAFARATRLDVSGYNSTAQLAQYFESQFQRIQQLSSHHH

[16] = target: T7, Zinc finger protein mex-5 (Caenorhabditis elegans, UniProt Q9XUB2); experiment: MEX-5/TCR-2 RNA interaction inhibitors, dose response, biochemical, C. elegans, fluorescence polarization (AID 1960)
T7 sequence (Q9XUB2 whole entry): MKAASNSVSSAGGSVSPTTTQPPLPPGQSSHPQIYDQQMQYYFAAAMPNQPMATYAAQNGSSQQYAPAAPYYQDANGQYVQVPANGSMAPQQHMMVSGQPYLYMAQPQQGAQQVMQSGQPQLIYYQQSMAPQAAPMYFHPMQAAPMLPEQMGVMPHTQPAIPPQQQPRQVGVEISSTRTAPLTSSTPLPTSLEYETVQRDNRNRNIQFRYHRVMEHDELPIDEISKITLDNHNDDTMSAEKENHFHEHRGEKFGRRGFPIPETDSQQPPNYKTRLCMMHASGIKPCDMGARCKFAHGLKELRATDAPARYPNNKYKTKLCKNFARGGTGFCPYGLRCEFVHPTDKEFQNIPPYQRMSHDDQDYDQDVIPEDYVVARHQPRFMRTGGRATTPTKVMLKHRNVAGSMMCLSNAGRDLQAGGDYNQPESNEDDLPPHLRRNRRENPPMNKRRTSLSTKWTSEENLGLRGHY

[17] = growth suppression of beta-catenin-knockout colon cells, dose response, cell-based, HCT116, human colon tumor (AID 1045); assay type: functional;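 further: HCT116 colon tumor cells with beta catenin knocked out; cells exposed to compound for 60 hours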
[18] = growth suppression of PTEN-null colon cells, dose response, cell-based, HCT116 PTEN knockout (AID 1047); assay type: functional;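 further: HCT116 colon tumor cells with PTEN knocked out; cells exposed to compound for 60 hours before readout; potency for loss of cell viability measured by luminescence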

Sequence of Cysteine protease ATG4B (Q9Y4P1 whole entry): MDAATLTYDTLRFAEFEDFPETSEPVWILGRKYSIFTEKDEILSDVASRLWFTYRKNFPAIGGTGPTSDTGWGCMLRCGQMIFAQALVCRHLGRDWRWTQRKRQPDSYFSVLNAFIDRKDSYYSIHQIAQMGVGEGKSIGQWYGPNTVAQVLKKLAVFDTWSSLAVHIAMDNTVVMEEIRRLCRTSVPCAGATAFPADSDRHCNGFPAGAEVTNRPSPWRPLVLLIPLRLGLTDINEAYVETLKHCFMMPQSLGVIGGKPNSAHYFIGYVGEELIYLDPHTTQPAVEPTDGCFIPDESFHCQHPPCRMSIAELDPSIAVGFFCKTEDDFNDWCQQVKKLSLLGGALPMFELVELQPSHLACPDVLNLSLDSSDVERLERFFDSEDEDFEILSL
Sequence of Beta-2 adrenergic receptor (P07550 whole entry, the tested form may be a part): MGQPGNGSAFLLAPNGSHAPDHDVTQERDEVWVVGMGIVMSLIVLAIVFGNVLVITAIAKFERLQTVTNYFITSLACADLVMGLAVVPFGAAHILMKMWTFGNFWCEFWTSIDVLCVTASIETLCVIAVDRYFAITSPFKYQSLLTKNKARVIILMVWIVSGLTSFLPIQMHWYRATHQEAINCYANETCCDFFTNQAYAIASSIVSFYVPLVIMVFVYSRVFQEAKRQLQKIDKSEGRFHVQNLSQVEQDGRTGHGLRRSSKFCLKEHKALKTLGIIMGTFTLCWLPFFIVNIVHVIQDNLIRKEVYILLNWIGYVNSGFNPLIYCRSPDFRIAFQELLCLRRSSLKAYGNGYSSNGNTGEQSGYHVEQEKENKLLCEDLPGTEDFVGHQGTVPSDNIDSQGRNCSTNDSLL
Sequence of Phospholipase A2 (P04054 whole entry): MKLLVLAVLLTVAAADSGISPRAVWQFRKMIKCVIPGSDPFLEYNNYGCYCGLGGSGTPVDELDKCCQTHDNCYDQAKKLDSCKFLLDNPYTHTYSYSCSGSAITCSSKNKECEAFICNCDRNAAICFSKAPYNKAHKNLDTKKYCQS
T5 sequence (P49327 whole entry, the tested form may be a part): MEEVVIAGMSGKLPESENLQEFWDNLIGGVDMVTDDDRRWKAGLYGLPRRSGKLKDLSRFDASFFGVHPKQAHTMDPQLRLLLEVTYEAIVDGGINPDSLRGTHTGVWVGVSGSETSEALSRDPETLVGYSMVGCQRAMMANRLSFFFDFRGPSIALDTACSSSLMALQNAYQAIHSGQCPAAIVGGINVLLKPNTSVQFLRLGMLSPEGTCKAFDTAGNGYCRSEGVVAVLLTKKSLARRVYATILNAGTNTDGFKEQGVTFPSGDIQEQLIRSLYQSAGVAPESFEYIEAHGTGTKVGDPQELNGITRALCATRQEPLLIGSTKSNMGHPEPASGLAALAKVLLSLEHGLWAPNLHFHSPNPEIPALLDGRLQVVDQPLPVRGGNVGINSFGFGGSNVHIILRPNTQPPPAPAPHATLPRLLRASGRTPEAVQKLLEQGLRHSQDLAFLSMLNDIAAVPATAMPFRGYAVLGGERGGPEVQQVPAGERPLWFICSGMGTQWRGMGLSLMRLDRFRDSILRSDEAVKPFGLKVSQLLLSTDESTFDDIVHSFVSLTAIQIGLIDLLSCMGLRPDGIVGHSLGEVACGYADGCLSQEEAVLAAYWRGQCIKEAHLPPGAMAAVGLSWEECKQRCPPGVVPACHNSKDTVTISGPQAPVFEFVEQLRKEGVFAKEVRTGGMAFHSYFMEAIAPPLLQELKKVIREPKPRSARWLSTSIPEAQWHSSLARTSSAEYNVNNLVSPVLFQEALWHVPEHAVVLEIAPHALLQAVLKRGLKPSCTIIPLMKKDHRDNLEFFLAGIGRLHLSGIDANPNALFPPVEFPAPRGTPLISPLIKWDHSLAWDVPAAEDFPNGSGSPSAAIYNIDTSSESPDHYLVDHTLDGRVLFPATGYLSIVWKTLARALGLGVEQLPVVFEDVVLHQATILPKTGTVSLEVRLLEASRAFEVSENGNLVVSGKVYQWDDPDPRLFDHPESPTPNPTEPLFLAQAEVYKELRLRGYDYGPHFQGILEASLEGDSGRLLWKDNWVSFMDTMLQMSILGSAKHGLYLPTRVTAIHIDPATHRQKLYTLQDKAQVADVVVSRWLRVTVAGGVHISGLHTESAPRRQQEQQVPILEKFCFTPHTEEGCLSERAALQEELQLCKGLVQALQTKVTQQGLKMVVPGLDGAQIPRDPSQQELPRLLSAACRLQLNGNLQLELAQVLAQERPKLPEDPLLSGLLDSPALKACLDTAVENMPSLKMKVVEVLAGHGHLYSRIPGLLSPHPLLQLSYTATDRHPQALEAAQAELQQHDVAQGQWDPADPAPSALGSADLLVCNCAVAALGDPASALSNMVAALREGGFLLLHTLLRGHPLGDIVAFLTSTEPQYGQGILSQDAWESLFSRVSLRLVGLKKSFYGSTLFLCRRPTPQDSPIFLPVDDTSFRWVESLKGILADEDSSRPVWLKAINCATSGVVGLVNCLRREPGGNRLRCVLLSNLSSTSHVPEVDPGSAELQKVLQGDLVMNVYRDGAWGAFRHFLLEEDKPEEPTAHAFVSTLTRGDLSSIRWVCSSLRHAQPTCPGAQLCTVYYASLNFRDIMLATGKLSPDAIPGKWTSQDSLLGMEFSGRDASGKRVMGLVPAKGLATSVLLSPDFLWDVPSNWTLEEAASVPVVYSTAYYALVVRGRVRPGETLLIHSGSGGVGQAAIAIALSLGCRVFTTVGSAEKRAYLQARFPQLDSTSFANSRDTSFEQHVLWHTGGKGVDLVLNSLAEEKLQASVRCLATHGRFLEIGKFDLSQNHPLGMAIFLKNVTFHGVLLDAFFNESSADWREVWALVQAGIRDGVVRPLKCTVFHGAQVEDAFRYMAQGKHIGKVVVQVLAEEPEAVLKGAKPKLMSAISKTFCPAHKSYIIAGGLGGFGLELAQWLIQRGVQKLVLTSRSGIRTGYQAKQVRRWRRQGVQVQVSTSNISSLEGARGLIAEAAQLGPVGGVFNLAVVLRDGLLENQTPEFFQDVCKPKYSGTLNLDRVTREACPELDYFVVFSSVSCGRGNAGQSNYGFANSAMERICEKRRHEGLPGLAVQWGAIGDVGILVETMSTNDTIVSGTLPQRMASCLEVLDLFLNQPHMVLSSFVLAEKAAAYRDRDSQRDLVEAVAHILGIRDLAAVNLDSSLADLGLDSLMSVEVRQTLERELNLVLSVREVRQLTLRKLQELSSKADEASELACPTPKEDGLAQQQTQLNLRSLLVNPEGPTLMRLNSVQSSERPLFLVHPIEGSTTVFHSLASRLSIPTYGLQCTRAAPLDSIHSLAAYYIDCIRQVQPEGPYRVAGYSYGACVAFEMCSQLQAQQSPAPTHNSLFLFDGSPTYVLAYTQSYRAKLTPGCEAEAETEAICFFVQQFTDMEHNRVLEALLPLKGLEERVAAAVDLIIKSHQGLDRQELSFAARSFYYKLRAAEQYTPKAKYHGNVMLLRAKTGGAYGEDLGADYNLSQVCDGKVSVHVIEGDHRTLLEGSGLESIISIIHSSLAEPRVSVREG
Sequence of Beta Lactamase (Q932Y6 whole entry): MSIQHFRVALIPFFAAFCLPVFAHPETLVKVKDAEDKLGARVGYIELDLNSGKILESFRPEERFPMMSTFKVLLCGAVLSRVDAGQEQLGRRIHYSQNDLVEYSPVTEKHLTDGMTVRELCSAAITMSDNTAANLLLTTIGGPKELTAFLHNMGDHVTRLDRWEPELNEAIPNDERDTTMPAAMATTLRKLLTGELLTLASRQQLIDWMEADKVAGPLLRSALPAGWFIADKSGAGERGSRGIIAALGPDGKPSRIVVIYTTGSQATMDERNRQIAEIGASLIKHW

IC50 [1]: 0.49 µM (active)
IC50 (Caspase-3): 0.51 µM (active)
IC50 [3]: 0.589 µM (active)
IC50 [4]: 0.58 µM (active)
IC50 [6]: 0.67 µM (active)
Structure (SMILES): O=C(Nc1nc2ccccc2s1)c1cc2ccccc2s1
IC50 [2]: 0.543 µM (active)
IC50 [5]: 0.66 µM (active)

IC50 (Phospholipase A2): 10.6 µM (active)
IC50 (Cysteine protease ATG4B): 18.4 µM (active)
Structure (SMILES): Fc1ccc(CNC(=S)NCc2ccccc2)cc1

Structure (SMILES): CCCNC(=O)c1nnsc1S(=O)(=O)c1ccc(Cl)cc1
EC50 [7]: 9.54 µM (active)
IC50 (Fatty acid synthase [8]): 12.7 µM (active)
AC50 [9]: 0.602 µM (active)
AC50 [10]: 16.4 µM (active)
AC50 [11]: 11.7 µM (active)
IC50 (CHO): 2.45 µM (active)
IC50 (Fatty acid synthase [12]): 10.4 µM (active)
IC50 (Beta Lactamase): 16.3 µM (inactive)
AC50 [13]: 3.63 µM (active)
AC50 [14]: 2.88 µM (active)

IC50 (Phospholipase A2): 7.25 µM (active)
IC50 (Cysteine protease ATG4B): 8.14 µM (active)
Structure (SMILES): COc1ccc(C(CC(=O)NCc2ccccc2)C(C)C)cc1 (stereo unspecified)

Structure (SMILES): CCC(NC(C)C)C(O)c1ccc(O)c(O)c1 (stereo unspecified) [ISOETHARINE MESYLATE]
EC50 [7]: 3.84 µM (active)
EC50 [15]: > 300 µM (not active)
EC50 [16]: 125 µM (active)
EC50 [17]: 20.7 µM (active)
EC50 [18]: 24.1 µM (active)
